Patent US20230219898A1, “COMPOUNDS AND METHODS FOR BLOCKING APOPTOSIS AND INDUCING AUTOPHAGY” (President and Fellows of Harvard College, priority 2020, published 2023)
Read-outs that look alike come from different tables or passages of the source.

Columns and labels:
TRADD-N and TRADD-C = target: T1, TRADD-N and TRADD-C (Homo sapiens, UniProt Q15628); assay: NanoBiT protein-protein interaction assay TRADD-N / TRADD-C; assay type: cell-based; details: 4 h
T1 construct: expression constructs encoding Flag-TRADD-N(1-179) and HA-TRADD-C(180-312); expressed in transfected cells; host or cells: HEK293T
T1 sequence (Q15628 1-179): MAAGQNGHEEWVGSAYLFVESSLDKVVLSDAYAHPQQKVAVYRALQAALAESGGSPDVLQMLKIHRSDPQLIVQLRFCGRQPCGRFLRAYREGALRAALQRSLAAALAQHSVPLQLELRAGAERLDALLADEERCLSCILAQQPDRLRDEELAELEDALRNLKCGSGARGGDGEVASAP
Experimental: Constructs were made encoding LgBiT and SmBiT fused to the N and C termini of TRADD-N and TRADD-C, respectively. HEK293T cells were transfected with these two plasmids for 24 h and then treated with indicated compounds for 4 h. The luminescence indicating the interaction of TRADD-N and TRADD-C was measured using Nano-Glo Live Cell Reagent. Mean ±s.d. from quintuplicates (n=5).
The Nano-Glo Live Cell assay kit (Promega) was used as follows: HEK293T cells were seeded at 7.5×10^3 cells per well in a white, clear-bottom 96-well plate 12 h before transfection (10 ng LgBiT-fused construct and 10 ng SmBiT-fused construct). After 24 h incubation, medium was removed and replaced with 100 μl Opti-MEM medium for 1 h at 37C. The Nano-Glo reagent was prepared as per manufacturer's instructions and added to each well immediately before the luminescence reading was taken. Luminescence was measured at 1 min intervals for 10 min on a plate reader and reported as relative light units (RLU). For quantitative comparison of LgBiT-SmBiT interactions, the peak values at the 2-3 min time point were used. Concentration of compounds used in NanoBiT assay: 10 μM (Apt-1, ICCB-19 or ICCB-19i).

mTOR = mTOR signalling immunoblotting in MEFs; assay type: cell-based, mouse; details: 10 μM
Text: Cell lysates analyzed by immunoblotting using indicated antibodies.

Murine RGC5(661W) cells = assay: RIPK1-dependent apoptosis (RDA) of RGC5 cells induced by TNFα plus 5Z-7-Oxozeaenol; assay type: cell-based; details: Mus musculus, 21 hours
Experimental: Murine RGC5(661W) cells were seeded in 96-well plates (4000 cells per well). Different concentrations of the compounds were added one hour prior to TNFα treatment, followed by the addition of 0.5 ng/ml TNFα plus 0.5 μM 5Z-7-Oxozeaenol to induce RIPK1-dependent apoptosis (RDA). After incubation for 21 hours, cell viability was measured by CellTiter-Glo Luminescent Cell Viability Assay.

RIPK1 = target: T2, RIPK1 (Homo sapiens, UniProt Q13546); assay: Activation of overexpressed Flag-RIPK1 in HEK293T cells (p-S166); assay type: cell-based; details: 10 μM, 12 h
T2 construct: expressed in transfected cells; host or cells: HEK293T
T2 sequence (Q13546 whole entry, species assumed): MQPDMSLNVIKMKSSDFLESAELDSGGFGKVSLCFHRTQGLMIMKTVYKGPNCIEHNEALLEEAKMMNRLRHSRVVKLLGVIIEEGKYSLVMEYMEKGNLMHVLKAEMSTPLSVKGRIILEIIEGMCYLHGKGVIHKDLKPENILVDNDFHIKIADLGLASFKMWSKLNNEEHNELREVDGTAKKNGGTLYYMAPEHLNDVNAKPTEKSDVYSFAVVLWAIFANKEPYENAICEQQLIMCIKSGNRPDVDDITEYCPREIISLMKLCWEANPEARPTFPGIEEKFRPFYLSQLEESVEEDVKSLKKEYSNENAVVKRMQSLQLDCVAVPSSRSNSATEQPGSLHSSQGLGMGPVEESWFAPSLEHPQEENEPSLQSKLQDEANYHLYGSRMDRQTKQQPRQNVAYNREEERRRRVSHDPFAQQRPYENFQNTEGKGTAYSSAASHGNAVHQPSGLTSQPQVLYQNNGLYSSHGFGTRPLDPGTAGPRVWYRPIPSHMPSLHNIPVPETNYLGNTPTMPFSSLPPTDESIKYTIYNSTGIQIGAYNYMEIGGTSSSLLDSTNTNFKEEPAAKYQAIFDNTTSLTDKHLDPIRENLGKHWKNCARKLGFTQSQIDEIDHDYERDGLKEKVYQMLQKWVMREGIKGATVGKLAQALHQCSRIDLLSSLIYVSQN
Experimental: The activation of RIPK1 was determined by immunoblotting using p-S166 RIPK1 antibody.

H4 cells = assay: Long-lived protein degradation assay; assay type: cell-based; details: 10 μM, 6 h
Experimental: The rates of long-lived protein turnover in H4 cells treated with indicated compounds (10 μM, 6 h); rapamycin as positive control. Values expressed as fold changes relative to normal control cells. Mean ±s.e.m. from 4 independent experiments (n=4). One-way ANOVA, post hoc Dunnett's test. **P=0.002, 0.0023 (left to right); *P=0.0229; n.s. not significant (P=0.8669).
H4 cells were cultured with L-[3,4,5-^3H(N)]-leucine (0.1 μCi/ml) (PerkinElmer Life Sciences) for 24 h and chased in media with nonradioactive leucine for 18 h to let the degradation of short-lived proteins happen. Then the media was changed and incubated for additional 6 h along with different compounds (10 μM Apt-1, 10 μM ICCB-19, 10 μM ICCB-19i, 1 μM rapamycin). The media were recovered and treated with 10% trichloroacetic acid to separate trichloroacetic acid-soluble (amino acids) and trichloroacetic acid-insoluble (proteins) fractions. The cells were completely dissolved with 1N NaOH. Radioactivity was measured with a liquid scintillation analyzer (PerkinElmer). Long-lived protein degradation was calculated by dividing trichloroacetic acid-soluble radioactivity in the media by total radioactivity detected in the cells and media. The values were expressed as changes in fold from the value obtained in control cells.

MEFs, BV2 cells, BMDMs = assay: Inflammatory responses in cells stimulated with TNFα or PAMPs; assay type: cell-based; details: 10 μM
Experimental: The protein levels of iNOS and Cox2 were determined by immunoblotting.
TNFα production was determined by ELISA.
The cells were then treated with Apt-1 (10 μM) or Nec-1s (10 μM) for 1 h and MDP (10 μg/ml) was added to cells directly and treated for 8 h. TNFα production was determined by ELISA. Mean ±s.d. from technical triplicates (n=3), representative of 3 independent experiments.

MEFs = assay: RDA in MEFs induced by mTNFα and 5Z-7-Oxozeaenol, cell survival; assay type: cell-based, mouse; details: for protection against RDA models: 10 μM; for IC50: Mus musculus, FIG. 5c, mTNFα 1 ng/mL, 5Z-7-Oxozeaenol 0.5 μM, 8 h, read-out: IC50 of inhibition of RDA
Experimental: The rates of cell death were measured in triplicate or quadruplicate in a 96-well or 384-well plate by using SYTOX Green Nucleic Acid Stain (Invitrogen) or ToxiLight Non-destructive Cytotoxicity BioAssay Kit (Lonza). The intensity of luminescence was determined in an EnSpire Multimode Plate Reader (PerkinElmer). Cytotoxicity is expressed as percentages of cell death per well after deducting the background signal in non-induced cells and compared to that of the maximal cell death with 100% Lysis Reagent. The rates of cell viability were determined by using CellTiter-Glo Luminescent Cell Viability Assay (Promega) following the manufacturer's protocol and the results are expressed as percentages of luminescence intensity per well after deducting the background signal in blank well and compared to that of the viability in the non-treated wells. Concentration of drugs used for inducing or inhibiting cell death, mTNFα: 1 ng/ml; 5Z-7-Oxozeaenol: 0.5 μM; Velcade: 50 nM; Apt-1/ICCB-19/ICCB-19i/Nec-1s: 10 μM.

[1] = Table 3, 0.5 ng/ml TNFα plus 0.5 μM 5Z-7-Oxozeaenol, read-out: RGC5 T/5z7 IC50/μM

SMILES | NanoBit interaction signal between LgBiT-TRADD-N and TRADD-C-SmBiT (TRADD-N and TRADD-C) | effect on mTOR (mTOR) | IC50 (Murine RGC5(661W) cells; Table 2, 0.5 ng/ml TNFα plus 0.5 μM 5Z-7-Oxozeaenol, read-out: RGC5 T/5z7 IC50) [µM] | IC50 (Murine RGC5(661W) cells; [1]) [µM] | inhibition of activation of overexpressed RIPK1 (RIPK1) | degradation of long-lived proteins (H4 cells) | production of inflammatory target genes and inflammatory cytokines (MEFs, BV2 cells, BMDMs) | protection against RDA models (MEFs) | IC50 (MEFs) [nM]
O=C(CSC1=NCCN1)NC1CCCCCC1 [ICCB-19] | dose-dependently reduced | no effect on mTOR | 0.18 | 2.01 | cannot inhibit | effectively induced | reduced production | protected against multiple RDA models | ~1000
CN1CCN=C1SC(C(=O)NC1CCCCCC1)c1ccccc1 (centres unmarked) [Compound 30] | dose-dependently reduced | no effect on mTOR |  | 1.28 | cannot inhibit | effectively induced | reduced production | protected against multiple RDA models | ~1000
